Consider 2 compounds from article PMC10619132 (RSC Chemical Biology, 2023).

The target in one experiment is YAP:TEAD1 complex (Homo sapiens, UniProt P28347). The experiment in a line: Anti-FLAG co-immunoprecipitation of HA-YAP in HEK293T cells. Type of experiment: cell-based. Particulars: 10 μM, 24 hours.
The next experiment concerns the target YAP:TEAD4 complex (Homo sapiens, UniProt Q15561). The experiment is described as above. Format: cell-based. Particulars: 10 μM, 24 hours.
The target in the next experiment is YAP:TEAD2 complex (Homo sapiens, UniProt Q15562). The description is as above. Format: cell-based. Particulars: 10 μM, 24 hours.
Chain of YAP:TEAD2 complex (Q15562 whole entry, one chain of several): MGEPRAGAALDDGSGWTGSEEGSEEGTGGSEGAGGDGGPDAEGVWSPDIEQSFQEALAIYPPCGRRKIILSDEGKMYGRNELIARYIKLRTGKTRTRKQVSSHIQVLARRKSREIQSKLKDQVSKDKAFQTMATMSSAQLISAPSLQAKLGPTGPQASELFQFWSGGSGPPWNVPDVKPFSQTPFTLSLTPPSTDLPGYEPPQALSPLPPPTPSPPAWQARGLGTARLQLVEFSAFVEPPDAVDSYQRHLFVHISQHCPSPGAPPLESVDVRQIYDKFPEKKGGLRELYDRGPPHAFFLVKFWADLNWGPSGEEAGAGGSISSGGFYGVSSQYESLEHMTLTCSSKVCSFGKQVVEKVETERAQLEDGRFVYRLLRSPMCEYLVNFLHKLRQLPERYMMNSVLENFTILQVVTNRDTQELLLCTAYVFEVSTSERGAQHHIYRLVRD
The target in experiment [1] is YAP–TEAD4-YBD interaction (Homo sapiens, UniProt Q15561). The experiment can be described thus: Primary FP screening assay, 1536-well. Type of experiment: binding. Particulars: read-out: IC50 in the primary FP screening assay.
Chain of YAP–TEAD4-YBD interaction (Q15561 216-434): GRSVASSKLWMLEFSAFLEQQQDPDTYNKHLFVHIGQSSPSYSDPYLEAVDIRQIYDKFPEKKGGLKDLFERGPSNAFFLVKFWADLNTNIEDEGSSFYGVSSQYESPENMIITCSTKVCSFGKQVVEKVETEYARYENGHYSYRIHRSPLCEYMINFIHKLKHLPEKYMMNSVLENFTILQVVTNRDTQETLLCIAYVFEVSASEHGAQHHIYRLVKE
Experiment [2] concerns Gal4-TEAD4 fusion protein with YAP. The experiment in a line: Gal4-TEAD4 / YAP UAS-LUC reporter assay in HEK293T cells. Format: cell-based. Particulars: 20 μM, 24 hours. (Reporter assays use an easily measured gene product as a stand-in for the process of interest.)

As usually defined, the IC50 is the point on the concentration scale where inhibition reaches its midpoint.

Chain of YAP:TEAD4 complex (Q15561 whole entry, one chain of several): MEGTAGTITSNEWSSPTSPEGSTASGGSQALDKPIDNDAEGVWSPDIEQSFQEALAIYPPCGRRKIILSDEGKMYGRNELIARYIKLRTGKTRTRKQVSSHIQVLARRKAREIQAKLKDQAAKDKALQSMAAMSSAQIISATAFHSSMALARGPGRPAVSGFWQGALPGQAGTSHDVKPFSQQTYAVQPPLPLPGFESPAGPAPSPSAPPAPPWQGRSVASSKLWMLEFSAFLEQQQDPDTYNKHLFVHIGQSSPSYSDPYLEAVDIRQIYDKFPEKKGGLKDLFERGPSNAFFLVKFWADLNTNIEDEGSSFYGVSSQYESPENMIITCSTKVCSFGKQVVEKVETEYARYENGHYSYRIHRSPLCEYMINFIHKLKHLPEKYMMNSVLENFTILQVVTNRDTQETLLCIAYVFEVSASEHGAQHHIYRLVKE
Chain of YAP:TEAD1 complex (P28347 whole entry, one chain of several): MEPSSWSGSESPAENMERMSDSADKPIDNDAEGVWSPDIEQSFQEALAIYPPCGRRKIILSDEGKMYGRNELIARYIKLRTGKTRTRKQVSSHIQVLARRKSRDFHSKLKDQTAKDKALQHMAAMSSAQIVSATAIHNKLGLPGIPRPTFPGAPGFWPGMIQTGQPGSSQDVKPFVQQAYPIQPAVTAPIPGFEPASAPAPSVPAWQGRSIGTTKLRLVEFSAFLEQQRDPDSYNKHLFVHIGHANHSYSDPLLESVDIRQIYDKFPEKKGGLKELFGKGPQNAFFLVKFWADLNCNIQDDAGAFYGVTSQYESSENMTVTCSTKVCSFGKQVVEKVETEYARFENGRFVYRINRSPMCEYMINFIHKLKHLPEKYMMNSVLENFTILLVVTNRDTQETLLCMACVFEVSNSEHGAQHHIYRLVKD

As for `C=CC(=O)N1C[C@@H](n2cc(-c3cccnc3)nn2)[C@H](OCc2ccc(C(F)(F)F)cc2)C1` [MYF-03-69], the “inhibition of HA-YAP association with FLAG-TEAD1” value on YAP:TEAD1 complex is on record as “robustly inhibited the association with TEAD1 transgene”. Moreover, on YAP:TEAD4 complex, the “inhibition of HA-YAP association with FLAG-TEAD4” value is on record as “strongly inhibited”. Further, on YAP:TEAD2 complex, the “inhibition of HA-YAP association with FLAG-TEAD2” value is given as “lesser inhibitory effect”.
With Verteporfin [VTP], the IC50 in experiment [1] was determined as 544 nM. Further, the “decrease in YAP-driven luciferase signal” value in experiment [2] is 88%.
